Data set [1] can be described thus: Dynamic vapor sorption (DVS) analysis, hygroscopicity. It counts as physicochemical. The settings on record: for solid form of post-DVS specimen (XRPD): after DVS 5-95-5% RH; for overall water uptake (DVS): 5-95% RH. As to the method:
(§1) DVS analysis was carried out using a TA Instruments Q5000 Dynamic Vapor Sorption analyzer. The instrument was calibrated with standard weights and a sodium bromide standard for humidity. Approximately 10-25 mg of sample was loaded into a metal-coated quartz pan for analysis. The sample was analyzed at 25° C. with a maximum equilibration time of one hour in 10% relative humidity (RH) steps from 5 to 95% RH (adsorption cycle) and from 95 to 5% RH (desorption cycle). The movement from one step to the next occurred either after satisfying the equilibrium criterion of 0.01% weight change or, if the equilibrium criterion was not met, after one hour. The percent weight change values were calculated using Microsoft Excel®.
as §1, with “Dynamic Vapor Sorption (DVS)” for “DVS”, “is” for “was”, “is” for “were”, “Excel.” for “Excel®.”

Data set [2] is described as follows: Hygroscopicity test in relative humidity (RH) jars. It counts as physicochemical. As to the method: Solids deliquesced within approx. 1 hour of exposure to elevated relative humidity. The sample was capped and placed in a freezer for storage.
Data set [3] deals with Psilocybin Induced Head Twitches in Mice. Briefly: Psilocybin-induced head-twitch response in mice, 5-HT2A antagonist given i.v. after psilocybin. Format: in vivo, C57BL/6J mice. The settings on record: for Result (suppression of psilocybin-induced head twitch): 5HT2A antagonist i.v. at T=7 min, summary of Examples 13-21; for effect on psilocybin-induced head twitch (summary of Examples 13-21): administered after psilocybin, compared to vehicle-treated mice, dose not given; for suppression of psilocybin-induced head-twitch response: monitored until 40 min.
Source text: The head-shake response is elicited by a wide variety of known hallucinogens such as LSD, psilocybin, psilocin, N,N-dimethyltryptamine (DMT), and mescaline as well as serotonin-releasing agents and direct 5-HT2 agonists. […] Later studies have confirmed 5-HT2A receptors are the primary, direct mediators of the response and that the headshake response in rats is essentially the same as head-twitches in mice, at least in regards to similarity in appearance and 5-HT2A receptor dependence.
Male C57BL/6J mice (approximately 25 g) were group housed. Animals were maintained under a 12 h light/dark cycle, at 23° C. with humidity controlled.
Psilocybin was formulated in saline at a concentration of 0.4 mg/mL to give a dose of 2 mg/kg when administered i.p. in a 5 mL/kg dosing volume.
(§2) At T=−60 min, C57BL/6J mice were individually housed into transparent observation cages with bedding removed and left to habituate. At T=−3 min, mice were placed into heated cages at 40° C. At T=0 h, groups of 3 mice were dosed intraperitoneally with psilocybin (2 mg/kg). Following dosing, mice were replaced into the heated cages and head-twitch responses continuously scored for 7 min. After 7 min, mice were intravenously dosed via the lateral tail vein with either vehicle 1 (saline) or volinanserin 1 mg/kg in 5 mL/kg dosing volumes. Mice were replaced into the observation cages and head twitch behavior were monitored until 40 min after agonist dosing. Cumulative head-twitches were measured every 2 minutes until 40 minutes after agonist dosing.
as §2, with “min. […]” for “min. After 7 min, mice were intravenously dosed via the lateral tail vein with either vehicle 1 (saline) or volinanserin 1 mg/kg in 5 mL/kg dosing volumes.”, “behavior was” for “behavior were”, “Cumulative head-twitch behavior was” for “Cumulative head-twitches were”
as §2, with “min. […]” for “min. After 7 min, mice were intravenously dosed via the lateral tail vein with either vehicle 1 (saline) or volinanserin 1 mg/kg in 5 mL/kg dosing volumes.”, “behavior was” for “behavior were”, “Cumulative head-twitch behavior was” for “Cumulative head-twitches were”
as §2, with “min. […]” for “min. After 7 min, mice were intravenously dosed via the lateral tail vein with either vehicle 1 (saline) or volinanserin 1 mg/kg in 5 mL/kg dosing volumes.”, “behavior was” for “behavior were”, “Cumulative head-twitch behavior was” for “Cumulative head-twitches were”
as §2, with “min. […]” for “min. After 7 min, mice were intravenously dosed via the lateral tail vein with either vehicle 1 (saline) or volinanserin 1 mg/kg in 5 mL/kg dosing volumes.”, “behavior was” for “behavior were”, “Cumulative head-twitch behavior was” for “Cumulative head-twitches were”

A short description of data set [4]: Estimated solubilities of psilocybin (solvent aliquot addition, visual inspection). The settings on record: room temperature. Format: physicochemical. The text has this:
Solubilities of psilocybin in a few solvents were estimated.

Data set [5] can be described thus: Estimated aqueous solubility of O-acetyl psilocin salts (aliquot addition method). Conditions: bounds printed as 'Small particles present at ≤ x mg/mL'. As to the method: Whether dissolution had occurred was judged by visual inspection after addition of each solvent aliquot. […] Solubility numbers were calculated by dividing the weight of the sample by the total amount of solvent used to dissolve the sample. […] The solubility number is expressed as “greater than or equal to” if dissolution occurred on addition of the first solvent aliquot.

[6] abbreviates: C57BL/6J mice, psilocybin 2 mg/kg i.p. at T=0, head twitches scored to 40 min.
Setting [7] is: antagonist 1 mg/kg i.v. 7 min after psilocybin 2 mg/kg i.p.
Setting [8] is: antagonist 4 mg/kg i.v. 7 min after psilocybin 2 mg/kg i.p.

In brackets after ≈: the same amount, converted by molar mass. Entries after “also recorded” stand apart in the source; their conditions may differ.

As for `CC(=O)Oc1cccc2[nH]cc(CCN(C)C)c12.O=C(O)C[C@H](O)C(=O)O` [L-malate salt, Form B, O-Acetyl Psilocin Malate], the “hygroscopicity (DVS), in words” value in data set [1] (5-85% RH) is on record as “non-hygroscopic”. Moreover, the “hydrate formation on DVS” value in data set [1] (above 85% RH) is on record as “no hydrate formation occurred”; in data set [1] (above 85% RH, listed as Malate B), “possible hydrate formation”. For the same compound, the “water uptake (DVS)” value in data set [1] (above 85% RH, unit not given) is recorded as “approx. 4.500”. The “solid form of post-DVS specimen (XRPD)” value in data set [1] is reported as “consistent with Form B”.
For the compound `CC(=O)Oc1cccc2[nH]cc(CCN(C)C)c12.O=C(O)C(O)C(O)C(=O)O` [L-tartrate salt, Form A, O-Acetyl Psilocin Tartrate], the “hygroscopicity (DVS), in words” value in data set [1] (5-85% RH) is on record as “non-hygroscopic”. In addition, in data set [1] (above 85% RH), the “hydrate formation on DVS” value is recorded as “consistent with hydrate formation” and the “water uptake (DVS)” value is “approx. 6%”. Further, the “hydrate formation on DVS” value in data set [1] (above 85% RH, listed as Tartrate A) is “possible hydrate formation”. Further, the “solid form of post-DVS specimen (XRPD)” value in data set [1] was “consistent with Form A by XRPD analysis and exhibited additional diffraction peaks”.
On to `CC(=O)Oc1cccc2[nH]cc(CCN(C)C)c12.O=C(O)C(O)C(O)C(=O)O` [L-tartrate, Form A], for which, in data set [1] (5-85% RH, DVS), the hygroscopicity result is on record as “non-hygroscopic”. For the same compound, the “hydrate formation (DVS)” value in data set [1] (DVS, at high RH) is “resulting in hydrate”. Besides, in data set [1] (above 85% RH, DVS), the Water uptake is given as about 6% and the hygroscopicity entry is “hygroscopic”.
In data set [2] (open vial in 75% RH jar), `CC(=O)Oc1cccc2[nH]cc(CCN(C)C)c12.Cl` [O-acetyl psilocin hydrochloride] came in with a time to deliquescence of at most 1 h.
For the compound `CC(=O)Oc1cccc2[nH]cc(CCN(C)C)c12.O=C(O)/C=C/C(=O)O` [O-acetylpsilocin-fumarate Form A, O-acetylpsilocin-fumarate], the “overall water uptake (DVS)” value in data set [1] is on record as “approx. 0.1%”. Moreover, the “hygroscopicity (DVS), in words” value in data set [1] (whole RH range (5-95% RH)) was “non-hygroscopic”.
With `O=c1[nH]c2ccccc2n1CCN1CCN(c2cccc(C(F)(F)F)c2)CC1` [flibanserin], the “Result (suppression of psilocybin-induced head twitch)” value in data set [3] (setting [6]) was “Partial suppression of head twitch”. Besides, the “effect on psilocybin-induced head twitch (summary of Examples 13-21)” value (“effect on psilocybin-induced head twitch” for short) in data set [3] is listed as “partial suppression”. The “suppression of psilocybin-induced head-twitch response” value in data set [3] (setting [7]) and in data set [3] (setting [8]) was “partially suppressed” in each case.
As to `O=C(c1ccc(F)cc1)C1CCN(CCn2c(=O)[nH]c3ccccc3c2=O)CC1` [ketanserin], the “suppression of psilocybin-induced head-twitch response” value in data set [3] (antagonist 2 mg/kg i.v. 7 min after psilocybin 2 mg/kg i.p.) is “completely suppressed”.
For `CC(=O)Oc1cccc2[nH]cc(CCN(C)C)c12.O=C(O)/C=C\C(=O)O` [maleate salt, Form A, O-acetyl psilocin maleate], in data set [1], the “overall water uptake (DVS)” value is “approx. 0.8%” and the “solid form of post-DVS specimen (XRPD)” value is reported as “consistent with Form A”. Besides, the “hygroscopicity (DVS), in words” value in data set [1] (whole RH range (5-95% RH)) is “non-hygroscopic”. Besides, the “hygroscopicity (DVS), in words” value in data set [1] (whole RH range (5-95% RH), listed as maleate salt) is listed as “minimal water sorption”.
For `CC(=O)Oc1cccc2[nH]cc(CCN(C)C)c12.CS(=O)(=O)O` [mesylate salt, Form A, O-Acetyl Psilocin Mesylate], the “hygroscopicity (DVS), in words” value in data set [1] (5-55% RH) is reported as “non-hygroscopic”. In data set [1] (above 55% RH), the “water uptake (DVS)” value is recorded as 40%. The “solid form of post-DVS specimen (XRPD)” value in data set [1] is listed as “liquid”.
For `COc1ccc(NC(=O)Nc2ccc(F)cc2F)cc1-c1c(Br)cnn1C` [nelotanserin], the “Result (suppression of psilocybin-induced head twitch)” value in data set [3] (setting [6]) was “Partial suppression of head twitch,”. Further, the “Result (suppression of psilocybin-induced head twitch) at high dose” value in data set [3] (C57BL/6J mice, psilocybin 2 mg/kg i.p. at T=0, antagonist at high dose (nelotanserin 4 mg/kg i.v.) at T=7 min, head twitches scored to 40 min) is listed as “full suppression at high dose”. For the same compound, the “effect on psilocybin-induced head twitch” value in data set [3] was “partial suppression”. The “suppression of psilocybin-induced head-twitch response” value in data set [3] (setting [7]) is listed as “partially suppressed”; in data set [3] (setting [8]) it was “completely suppressed; also recorded: completed suppressed”.
Take `CC(=O)Oc1cccc2[nH]cc(CCN(C)C)c12.O=P(O)(O)O` [phosphate salt (Forms A+B), O-acetyl psilocin phosphate]: in data set [2] (RH jars), the “hygroscopicity by RH jars, in words” value is “low”.
On to `N#Cc1c[nH]c2c(C(=O)N3CCN(CCc4ccc(F)cc4)CC3)cccc12` [pruvanserin], for which the “Result (suppression of psilocybin-induced head twitch)” value in data set [3] (setting [6]) is given as “Full suppression of head twitch”. Besides, in data set [3], the “effect on psilocybin-induced head twitch” value is listed as “full ending”. Moreover, in data set [3] (setting [7]), the “suppression of psilocybin-induced head-twitch response” value is listed as “completely suppressed”.
As to `CN(C)CCc1c[nH]c2cccc(OP(=O)(O)O)c12` [psilocybin], the solubility in data set [4] (organic solvent or mixture, thermodynamic from solid, 1,4-dioxane) is under 1000 µg/mL; in data set [4] (organic solvent or mixture, thermodynamic from solid, 2-propanol (2-PrOH)) it was under 1000 µg/mL; in data set [4] (organic solvent or mixture, thermodynamic from solid, Acetone), under 1000 µg/mL; in data set [4] (organic solvent or mixture, thermodynamic from solid, Acetonitrile (ACN)) it was under 1000 µg/mL; in data set [4] (organic solvent or mixture, thermodynamic from solid, Dichloromethane (DCM)), under 1000 µg/mL; in data set [4] (organic solvent or mixture, thermodynamic from solid, Ethanol (EtOH)), under 1000 µg/mL. The solubility in data set [4] (organic solvent or mixture, thermodynamic from solid, Ethyl acetate (EtOAc)) was under 1000 µg/mL; in data set [4] (organic solvent or mixture, thermodynamic from solid, Methanol (MeOH)), 11000 µg/mL (≈ 38.7 mM); in data set [4] (organic solvent or mixture, thermodynamic from solid, Tetrahydrofuran (THF)), under 1000 µg/mL; in data set [4] (thermodynamic from solid, Water) it was 4000 µg/mL (≈ 14.1 mM). The “solid form of post-DVS specimen (XRPD)” value in data set [1] is reported as “converted to a hydrate Form B; also recorded: Crystalline Form B (hydrate)”.
In the case of `Cc1nc2sccn2c(=O)c1CCN1CCC(=C(c2ccc(F)cc2)c2ccc(F)cc2)CC1` [ritanserin], the “Result (suppression of psilocybin-induced head twitch)” value in data set [3] (setting [6]) is recorded as “Full suppression of head twitch”. In addition, the “effect on psilocybin-induced head twitch” value in data set [3] was “full ending”. The “suppression of psilocybin-induced head-twitch response” value in data set [3] (setting [7]) was “completely suppressed”.
For `COc1cccc([C@H](O)C2CCN(CCc3ccc(F)cc3)CC2)c1OC` [volinanserin], in that order: “Full suppression of head twitch”, “full ending” and “completely suppressed”.
For the compound Maleate, the “Water solubility” value in data set [5] was over 50000 µg/mL.

The record behind these values is US11945832B2, “Psilocybin and O-acetylpsilocin, salts and solid state forms thereof” (Terran Biosciences Inc., priority 2021, dated 2024).
